In patent US6362369B1, “Phthalic acid diamide derivatives fluorine-containing aniline compounds as starting material, agricultural and horticultural insecticides, and a method for application of the insecticides” (Nihon Nohyaku Co., Ltd., priority 1997, dated 2002):

Columns and labels:
Type in all cases: in vivo
[1] = test system: rice leafroller (Cnaphalocrocis medinalis); assay: Insecticidal effect on rice leafroller (Test Example 3); conditions: 500 ppm, 25° C., humidity 70%; for Insecticidal effect (Test Example 3), judged from mortality: rice lamina dip, 4 days after inoculation; for Insecticidal effect, Test Example 3: rice lamina immersed, four days after inoculation
Method in brief: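 Insecticidal effect is judged by a predefined criterion from dead/alive counts four days after infesting air-dried lamina with third-instar larvae, kept on moistened filter paper at 25° C, 70% humidity.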

[2] = test system: common cutworm (Spodoptera Litura); assay: Insecticidal effect on common cutworm (Test Example 2); conditions: 500 ppm, 25° C.; for Insecticidal effect (Test Example 2), judged from mortality: cabbage leaf dip, 8 days after inoculation; for Insecticidal effect, Test Example 2: cabbage leaf immersed, eight days after inoculation
Method in brief: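 Second-instar larvae placed in 9 cm Petri dishes with air-dried treated material, held at 25 °C. Dead and live insects counted 8 days after inoculation; mortality calculated and scored against a set criterion. Triplicate groups of 10 insects.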

[3] = test system: diamondback moth (Plutella xylostella); assay: Insecticidal effect on diamondback moth (Test Example 1); conditions: diamondback moth; for Insecticidal effect (Test Example 1), judged from mortality: judged by the criterion of Test Example 1; for Insecticidal effect, Test Example 1: judged by the mortality criterion of Test Example 1
Method in brief: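 Oviposition by adults on Chinese cabbage seedling; immersion; air-dry; 25° C room. Count of hatched larvae at day 6 post-immersion → mortality → effect graded by criterion. Triplicate, 10 insects/group.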

[4] = third-instar larvae of rice leafroller
[5] = second-instar larvae of common cutworm

| SMILES | Insecticidal effect (Test Example 3), judged from mortality [1, 4] | Insecticidal effect (Test Example 2), judged from mortality [2, 5] | Insecticidal effect (Test Example 1), judged from mortality [3] | Insecticidal effect, Test Example 3 [1, 4] | Insecticidal effect, Test Example 2 [2, 5] | Insecticidal effect, Test Example 1 [3] | Insecticidal effect, Test Example 3 ([1]; rice leafroller third-instar larvae) | Insecticidal effect, Test Example 2 ([2]; common cutworm second-instar larvae) |
| --- | --- | --- | --- | --- | --- | --- | --- | --- |
| Cc1cc(C(F)(F)C(F)(F)F)ccc1NC(=O)c1cccc(Cl)c1C(=O)NC(C)(C)C(Br)CBr (racemic) [compound 1603] | A (100) | A (100) | A (100) | – | – | – | – | – |
| CC(C)NC(=O)c1c(I)cccc1C(=O)Nc1ccc2c(c1Cl)OC(F)(F)C(F)O2 (racemic) [compound 1679] | A (100) | A (100) | A (100) | – | – | – | – | – |
| CC(C)NC(=O)c1c(I)cccc1C(=O)Nc1ccc2c(c1Cl)OC(F)C(F)(F)O2 (racemic) [compound 1680] | A (100) | A (100) | A (100) | – | – | – | – | – |
| Cc1cc(OC(F)(F)C(F)F)ccc1NC(=O)c1cccc(Cl)c1C(=O)NC(C)C [Compound No. 141, 3-chloro-N^1-[4-(1,1,2,2-tetrafluoroethoxy)-2-methylphenyl]-N^2-isopropylphthalic acid diamide] | – | – | – | A (100) | A (100) | A (100) | – | – |
| Cc1cc(OC(F)(F)C(F)F)ccc1NC(=O)c1c(Cl)cccc1C(=O)NC(C)C [Compound No. 239, 6-chloro-N^1-[4-(1,1,2,2-tetrafluoroethoxy)-2-methylphenyl]-N^2-isopropylphthalic acid diamide] | – | – | – | A (100) | A (100) | A (100) | – | – |
| CC(C)NC(=O)c1c(Br)cccc1C(=O)Nc1ccc(OC(F)(F)F)cc1 [Compound No. 262, 3-bromo-N^1-(4-trifluoromethoxyphenyl)-N^2-isopropylphthalic acid diamide] | – | – | – | D (79-50) | A (100) | A (100) | – | – |
| Cc1cc(C(F)(F)C(F)(F)C(F)(F)C(F)(F)F)ccc1NC(=O)c1cccc(Br)c1C(=O)NC(C)C [Compound No. 281, 3-bromo-N^1-(4-nonafluorobutyl-2-methylphenyl)-N^2-isopropyl-phthalic acid diamide] | – | – | – | A (100) | A (100) | A (100) | – | – |
| Cc1ccc(Cl)cc1NC(=O)c1cccc([N+](=O)[O-])c1C(N)=O [compound 1] | – | – | – | A (100) | D (79-50) | D (79-50) | – | – |
| CCNC(=O)c1c(Cl)cccc1C(=O)Nc1ccc(OC(F)F)cc1C [compound 8] | – | – | – | A (100) | A (100) | A (100) | – | – |
| CCNC(=O)c1c(C(=O)Nc2cc(Cl)ccc2C)cccc1[N+](=O)[O-] [compound 10] | – | – | – | D (79-50) | D (79-50) | A (100) | – | – |
| CCNC(=O)c1c(C(=O)Nc2ccc(OC(F)F)cc2C)cccc1[N+](=O)[O-] [compound 11] | – | – | – | C (89-80) | C (89-80) | A (100) | – | – |
| CC(C)NC(=O)c1ccccc1C(=O)Nc1ccc(C(F)(F)C(F)(F)C(F)(F)F)cc1 [compound 27] | – | – | – | C (89-80) | A (100) | A (100) | – | – |
| CC(C)NC(=O)c1ccccc1C(=O)Nc1ccc(OC(F)(F)F)cc1 [compound 29] | – | – | – | A (100) | B (99-90) | A (100) | – | – |
| CC(C)NC(=O)c1ccccc1C(=O)Nc1ccc(OC(F)(F)C(F)OC(F)(F)C(F)(F)C(F)(F)F)cc1 (stereo not shown) [compound 30] | – | – | – | A (100) | A (100) | A (100) | – | – |
| CC(C)NC(=O)c1ccccc1C(=O)Nc1ccc(Cl)cc1Cl [compound 42] | – | – | – | A (100) | D (79-50) | A (100) | – | – |
| CC(C)NC(=O)c1ccccc1C(=O)Nc1ccc(OC(F)(F)F)cc1Cl [compound 47] | – | – | – | A (100) | D (79-50) | A (100) | – | – |
| CC(C)NC(=O)c1ccccc1C(=O)Nc1ccc(OC(F)(F)F)cc1Br [compound 48] | – | – | – | A (100) | B (99-90) | A (100) | – | – |
| Cc1c(Cl)cccc1NC(=O)c1ccccc1C(=O)NC(C)C [compound 49] | – | – | – | A (100) | A (100) | A (100) | – | – |
| Cc1cc(Cl)ccc1NC(=O)c1ccccc1C(=O)NC(C)C [compound 50] | – | – | – | A (100) | A (100) | A (100) | – | – |

| SMILES | Insecticidal effect (Test Example 3), judged from mortality [1, 4] | Insecticidal effect (Test Example 2), judged from mortality [2, 5] | Insecticidal effect (Test Example 1), judged from mortality [3] | Insecticidal effect, Test Example 3 [1, 4] | Insecticidal effect, Test Example 2 [2, 5] | Insecticidal effect, Test Example 1 [3] | Insecticidal effect, Test Example 3 ([1]; rice leafroller third-instar larvae) | Insecticidal effect, Test Example 2 ([2]; common cutworm second-instar larvae) |
| --- | --- | --- | --- | --- | --- | --- | --- | --- |
| Cc1cc(Br)ccc1NC(=O)c1ccccc1C(=O)NC(C)C [compound 52] | – | – | – | A (100) | A (100) | A (100) | – | – |
| Cc1cc(C(F)(F)C(F)(F)F)ccc1NC(=O)c1ccccc1C(=O)NC(C)C [compound 55] | – | – | – | A (100) | B (99-90) | A (100) | – | – |
| Cc1cc(C(F)(F)C(F)(F)C(F)(F)F)ccc1NC(=O)c1ccccc1C(=O)NC(C)C [compound 56] | – | – | – | A (100) | A (100) | A (100) | – | – |
| Cc1cc(OC(F)F)ccc1NC(=O)c1ccccc1C(=O)NC(C)C [compound 58] | – | – | – | A (100) | A (100) | A (100) | – | – |
| Cc1cc(OC(F)(F)C(F)F)ccc1NC(=O)c1ccccc1C(=O)NC(C)C [compound 60] | – | – | – | A (100) | A (100) | A (100) | – | – |
| Cc1c(NC(=O)c2ccccc2C(=O)NC(C)C)cccc1OC(F)(F)C(F)Cl (stereo not shown) [compound 61] | – | – | – | A (100) | B (99-90) | A (100) | – | – |
| Cc1cc(OC(F)(F)C(F)Cl)ccc1NC(=O)c1ccccc1C(=O)NC(C)C (stereo not shown) [compound 62] | – | – | – | A (100) | A (100) | A (100) | – | – |
| Cc1cc(C(F)(F)C(F)(F)Br)ccc1NC(=O)c1ccccc1C(=O)NC(C)C [compound 63] | – | – | – | A (100) | B (99-90) | A (100) | – | – |
| Cc1cc(C(F)(F)C(F)(Cl)Cl)ccc1NC(=O)c1ccccc1C(=O)NC(C)C [compound 64] | – | – | – | A (100) | B (99-90) | A (100) | – | – |
| Cc1cc(OC(F)(F)C(F)C(F)(F)F)ccc1NC(=O)c1ccccc1C(=O)NC(C)C (stereo not shown) [compound 65] | – | – | – | A (100) | A (100) | A (100) | – | – |
| Cc1cc(OC(F)(F)C(F)(Br)C(F)(F)F)ccc1NC(=O)c1ccccc1C(=O)NC(C)C (stereo not shown) [compound 66] | – | – | – | B (99-90) | A (100) | A (100) | – | – |
| Cc1cc(OC(F)(F)C(F)OC(F)(F)F)ccc1NC(=O)c1ccccc1C(=O)NC(C)C (stereo not shown) [compound 67] | – | – | – | A (100) | A (100) | A (100) | – | – |
| Cc1cc(Sc2ccc(Cl)cc2)ccc1NC(=O)c1ccccc1C(=O)NC(C)C [compound 77] | – | – | – | A (100) | C (89-80) | A (100) | – | – |
| Cc1cc(Oc2ccc(C(F)(F)F)cn2)ccc1NC(=O)c1ccccc1C(=O)NC(C)C [compound 78] | – | – | – | A (100) | A (100) | A (100) | – | – |
| Cc1cc(Oc2ncc(C(F)(F)F)cc2Cl)ccc1NC(=O)c1ccccc1C(=O)NC(C)C [compound 79] | – | – | – | D (79-50) | A (100) | A (100) | – | – |
| CC(C)NC(=O)c1ccccc1C(=O)Nc1ccc(OC(F)F)cc1C(F)(F)F [compound 83] | – | – | – | A (100) | A (100) | A (100) | – | – |
| Cc1cc(OC(F)F)ccc1NC(=O)c1c(Cl)cccc1C(=O)NCc1ccccc1Cl [compound 1424] | – | – | – | – | – | – | A (100) | A (100) |
| Cc1cc(C(F)(F)C(F)(F)F)c(C)cc1NC(=O)c1cccc(I)c1C(=O)NC(C)(C)C [compound 1656] | A (100) | A (100) | – | – | – | – | – | – |
